Key:
Assay in all cases: relative viability (nuclei count vs DMSO), 5 days (fraction); higher = more cells survive
CAP-232 = compound: C[C@H]([C@@H](C(=O)N)NC(=O)[C@@H]1CSSC[C@@H](C(=O)N[C@H](C(=O)N[C@@H](C(=O)N[C@H](C(=O)N1)CCCCN)CC2=CNC3=CC=CC=C32)CC4=CC=C(C=C4)O)NC(=O)[C@@H](CC5=CC=CC=C5)N)O [CAP-232]
Summary of the method: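 Lung cancer cell lines received five library-drug doses (not always all listed) spaced by √10, pinned on vehicle-anchored 1536-well plates after an overnight stay at 37 °C. Five days later, with no medium change, nuclei were Hoechst-stained, imaged at 4× and counted with MetaXpress. Viability is treated-well nuclei relative to vehicle-well nuclei, as a median across plates. Passing plates had control CV below 25% and at least one doubling.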

CAP-232 + Trametinib = compound: C[C@H]([C@@H](C(=O)N)NC(=O)[C@@H]1CSSC[C@@H](C(=O)N[C@H](C(=O)N[C@@H](C(=O)N[C@H](C(=O)N1)CCCCN)CC2=CNC3=CC=CC=C32)CC4=CC=C(C=C4)O)NC(=O)[C@@H](CC5=CC=CC=C5)N)O [CAP-232] + CC(=O)Nc1cccc(-n2c(=O)n(C3CC3)c(=O)c3c(Nc4ccc(I)cc4F)n(C)c(=O)c(C)c32)c1 [Trametinib] (partner 0.02 µM)
Summary of the method: (§1)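 Lung cancer cell lines were seeded in 1536-well plates and dosed by pin tool the next day, with either a single drug or a fixed anchor-drug dose combined with five library-drug doses (not always all listed) spaced in √10 steps. Five days later, one step fixed the cells and stained their nuclei (final 0.05% Triton X-100, 1% formaldehyde, 1 ug/ml Hoechst), and nuclei were counted on 4× images. Relative viability is the nuclei count in treated wells divided by the count in vehicle wells, and each value is the median of duplicate plates.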

CAP-232 + Lapatinib = compound: C[C@H]([C@@H](C(=O)N)NC(=O)[C@@H]1CSSC[C@@H](C(=O)N[C@H](C(=O)N[C@@H](C(=O)N[C@H](C(=O)N1)CCCCN)CC2=CNC3=CC=CC=C32)CC4=CC=C(C=C4)O)NC(=O)[C@@H](CC5=CC=CC=C5)N)O [CAP-232] + CS(=O)(=O)CCNCc1ccc(-c2ccc3ncnc(Nc4ccc(OCc5cccc(F)c5)c(Cl)c4)c3c2)o1 [Lapatinib] (partner 2 µM)
Summary of the method: as §1

CAP-232 + AZD7762 = compound: C[C@H]([C@@H](C(=O)N)NC(=O)[C@@H]1CSSC[C@@H](C(=O)N[C@H](C(=O)N[C@@H](C(=O)N[C@H](C(=O)N1)CCCCN)CC2=CNC3=CC=CC=C32)CC4=CC=C(C=C4)O)NC(=O)[C@@H](CC5=CC=CC=C5)N)O [CAP-232] + NC(=O)Nc1cc(-c2cccc(F)c2)sc1C(=O)N[C@H]1CCCNC1 [AZD7762] (partner 0.2 µM)
Summary of the method: as §1

CAP-232 + Vorinostat = compound: C[C@H]([C@@H](C(=O)N)NC(=O)[C@@H]1CSSC[C@@H](C(=O)N[C@H](C(=O)N[C@@H](C(=O)N[C@H](C(=O)N1)CCCCN)CC2=CNC3=CC=CC=C32)CC4=CC=C(C=C4)O)NC(=O)[C@@H](CC5=CC=CC=C5)N)O [CAP-232] + O=C(CCCCCCC(=O)Nc1ccccc1)NO [Vorinostat] (partner 1 µM)
Summary of the method: as §1

| Cell Line | relative viability (CAP-232; 0.4 µM) | relative viability (CAP-232; 1.265 µM) | relative viability (CAP-232; 4 µM) | relative viability (CAP-232; 12.65 µM) | relative viability (CAP-232 + Trametinib; first compound 0.4 µM) | relative viability (CAP-232 + Trametinib; first compound 1.265 µM) | relative viability (CAP-232 + Trametinib; first compound 4 µM) | relative viability (CAP-232 + Trametinib; first compound 12.65 µM) | relative viability (CAP-232 + Lapatinib; first compound 0.4 µM) | relative viability (CAP-232 + Lapatinib; first compound 1.265 µM) | relative viability (CAP-232 + Lapatinib; first compound 4 µM) | relative viability (CAP-232 + Lapatinib; first compound 12.65 µM) | relative viability (CAP-232 + AZD7762; first compound 0.4 µM) | relative viability (CAP-232 + AZD7762; first compound 1.265 µM) | relative viability (CAP-232 + AZD7762; first compound 4 µM) | relative viability (CAP-232 + AZD7762; first compound 12.65 µM) | relative viability (CAP-232 + Vorinostat; first compound 0.4 µM) | relative viability (CAP-232 + Vorinostat; first compound 1.265 µM) | relative viability (CAP-232 + Vorinostat; first compound 4 µM) | relative viability (CAP-232 + Vorinostat; first compound 12.65 µM) |
| --- | --- | --- | --- | --- | --- | --- | --- | --- | --- | --- | --- | --- | --- | --- | --- | --- | --- | --- | --- | --- |
| NCI-H1915 | 1.09 | 0.948 | 1.08 | 1.07 | 0.207 | 0.307 | 0.291 | 0.371 | 1.04 | 0.957 | 1.04 | 0.982 | 0.771 | 0.685 | 0.704 | 0.762 | 0.697 | 0.511 | 0.516 | 0.506 |
| BEN | 1.03 | 1.05 | 0.989 | 0.922 | 1.15 | 0.987 | 0.997 | 0.914 | 0.776 | 0.661 | 0.583 | 0.575 | 0.789 | 0.714 | 0.7 | 0.553 | 0.547 | 0.57 | 0.565 | 0.479 |
| NCI-H2347 | 1.08 | 1.04 | 1.04 | 0.948 | 0.34 | 0.255 | 0.256 | 0.241 | 0.944 | 0.898 | 0.931 | 0.864 | 0.733 | 0.746 | 0.726 | 0.662 | 0.63 | 0.613 | 0.585 | 0.487 |
| H3255 | 0.976 | 0.946 | 1.01 | 0.769 | 0.608 |  | 0.543 | 0.436 | 0.317 | 0.226 | 0.219 | 0.0844 | 0.979 | 0.869 | 0.898 | 0.756 | 0.923 |  | 0.7 | 0.726 |
| NCI-H1975 | 1.11 | 0.86 | 1.02 | 0.72 | 0.368 | 0.262 | 0.743 | 0.225 | 1.03 | 0.867 | 1.11 | 0.583 | 0.892 | 0.711 | 0.712 | 0.442 | 0.781 | 0.758 | 0.763 | 0.449 |
| NCI-H647 | 1.11 | 0.808 | 1.17 | 0.768 | 0.321 | 0.504 | 0.564 | 0.249 | 1.07 | 1.14 | 1.39 | 0.469 | 0.767 | 0.33 | 0.696 | 0.282 | 0.541 | 0.593 | 0.602 | 0.414 |
| A-427 | 1.01 | 0.953 | 0.931 | 0.86 | 0.615 | 0.716 | 0.795 | 0.684 | 1.09 | 1.04 | 1.17 | 1.09 | 0.72 | 0.754 | 0.811 | 0.746 | 0.937 | 0.882 | 0.879 | 0.893 |
| LXF-289 | 1.04 | 1.02 | 1.06 | 0.993 | 0.657 | 0.687 | 0.657 | 0.713 | 0.952 | 0.903 | 0.914 | 0.953 | 1.19 | 1.16 | 1.15 | 1.27 | 0.89 | 0.785 | 0.772 | 0.774 |
